Data set [1] has as its system male C57B/6 mice. The data set is described as follows: YKL-05-099 dose range once daily for two weeks: histomorphometry. Format: in vivo, mouse. The conditions noted are these: 18 mg/kg once daily. How it is done: Right tibia from 8-week-old mice were subjected to bone histomorphometric analysis. The mice were injected 20 mg/kg body weight of calcein and 40 mg/kg body weight of demeclocycline on 7 and 2 days before necropsy, respectively. The tibia was dissected and fixed in 70% ethanol for 3 days. Fixed bones were dehydrated in graded ethanol, then infiltrated and embedded in methylmethacrylate without demineralization. Undecalcified 4-μm-thick longitudinal sections were obtained using microtome (RM2255, Leica Biosystems., IL, USA). Sections were left unstained for dynamic parameters measurement, and consecutive sections were stained with tartrate-resistant acid phosphatase and counterstained with toluidine blue for measurement of cellular parameters. A standard dynamic bone histomorphometric analysis of the tibial metaphysis was done using the Osteomeasure analyzing system (Osteometrics Inc., Decatur, GA, USA). Measurements were performed in the area of secondary spongiosa, 200 μm below the proximal growth plate. The observer was blinded to the experimental genotype at the time of measurement. The structural, dynamic and cellular parameters were calculated and expressed according to the standardized nomenclature (75).
Static and dynamic histomorphometry was performed (see FIG. 24). […] Effects on osteoclast differentiation were assessed by TRAP secretion assays and counting multi-nucleated TRAP-positive cells (see FIG. 26). M-CSF signaling in primary macrophages, was assessed by immunoblotting for MCSF-receptor Y723 phosphorylation and ERK1/2 phosphorylation (see FIG. 27).

In data set [2] the target is T1, SIK2 (Homo sapiens, UniProt Q9H0K1).
T1 construct: T7 phage fusion (most kinases) or DNA tag after HEK-293 expression; purchased DiscoverX (Fremont, CA), ScanEDGE; host or cells: T7 phage in E. coli BL21-derived host, or HEK-293
The experiment in a line: Kd determination for SIK2 (bound kinase measured by qPCR). Format: binding. How it is done:
FIGS. 5A to 5J: Small molecule SIK inhibitors regulate SOST and RANKL expression by osteocytes. (FIG. 5A) Structure of YKL-04-114 (top panel, left), YKL-05-093 (top panel, right), and YKL-05-093 Kd determination curves for SIK2 (bottom panels). For the Kd determination curves, the y-axis represents the amount of bound kinase measured by qPCR (see methods), and the x-axis represents the corresponding compound concentration in nM. (FIG. 5B) Ocy454 cells were treated with YKL-04-114 (10 μM) for the indicated times, followed by immunoblotting of whole cell lysates as indicated. (FIG. 5C) Ocy454 cells were treated with the indicated concentrations of YKL-04-114 for 60 minutes, followed by immunoblotting of whole cell lysates as indicated. […] Right: quantification of nuclear fraction (defined as nuclear/total) of HDAC4 or CRTC2. * indicates p<0.01 comparing treatment vs vehicle. […] Quantification of HDAC4 S246 phosphorylation, as assessed by densitometric analysis of immunoblots, is shown. * indicates p<0.01 comparing treatment vs vehicle. # indicates p<0.05 for the same comparison. […] (FIG. 5G) Control and SIK2/3 deficient cells were treated with YKL-05-093 (0.5 μM) for 4 hours and SOST transcript abundance was measured by RT-qPCR. (FIG. 5H) Control and CRTC2 shRNA cells were treated with PTH (1 nM) or YKL-05-093 (0.5 μM) for 4 hours and RANKL transcript abundance was measured by RT-qPCR. […]

For data set [3], the system named is Ocy454 cells. The experiment in a line: cAMP radioimmunoassay. Format: cell-based, mouse. The conditions noted are these: 20 minutes; FIG. 14B. How it is done: Cells, in 96 well plates, were treated with indicated ligands for 20 minutes at room temperature in the presence of the phosphodiesterase inhibitor 3-isobutyl-1-methylxanthine (IBMX, Sigma I5879, 2 mM). The medium was then removed and cells were lysed in 50 mM HCl and transferred to −80C. Thawed lysates were diluted 1:5 with dH2O, and an 10 μl aliquot was assessed for cAMP content by radioimmunoassay using ^125I-cAMP analog as a tracer and unlabeled cAMP to generate a standard curve.

Data set [4] is described as follows: Half-life in murine hepatic microsomes. Format: in vitro ADME. The conditions noted are these: compared to YKL-04-114 and HG-9-91-01; FIG. 16. How it is done: FIG. 16: The half-life (in minute) of the indicated compound was measured in murine hepatic microsomes.

Entries after “also recorded” stand apart in the source; their conditions may differ.

T1 sequence (Q9H0K1 whole entry, the tested form may be a part): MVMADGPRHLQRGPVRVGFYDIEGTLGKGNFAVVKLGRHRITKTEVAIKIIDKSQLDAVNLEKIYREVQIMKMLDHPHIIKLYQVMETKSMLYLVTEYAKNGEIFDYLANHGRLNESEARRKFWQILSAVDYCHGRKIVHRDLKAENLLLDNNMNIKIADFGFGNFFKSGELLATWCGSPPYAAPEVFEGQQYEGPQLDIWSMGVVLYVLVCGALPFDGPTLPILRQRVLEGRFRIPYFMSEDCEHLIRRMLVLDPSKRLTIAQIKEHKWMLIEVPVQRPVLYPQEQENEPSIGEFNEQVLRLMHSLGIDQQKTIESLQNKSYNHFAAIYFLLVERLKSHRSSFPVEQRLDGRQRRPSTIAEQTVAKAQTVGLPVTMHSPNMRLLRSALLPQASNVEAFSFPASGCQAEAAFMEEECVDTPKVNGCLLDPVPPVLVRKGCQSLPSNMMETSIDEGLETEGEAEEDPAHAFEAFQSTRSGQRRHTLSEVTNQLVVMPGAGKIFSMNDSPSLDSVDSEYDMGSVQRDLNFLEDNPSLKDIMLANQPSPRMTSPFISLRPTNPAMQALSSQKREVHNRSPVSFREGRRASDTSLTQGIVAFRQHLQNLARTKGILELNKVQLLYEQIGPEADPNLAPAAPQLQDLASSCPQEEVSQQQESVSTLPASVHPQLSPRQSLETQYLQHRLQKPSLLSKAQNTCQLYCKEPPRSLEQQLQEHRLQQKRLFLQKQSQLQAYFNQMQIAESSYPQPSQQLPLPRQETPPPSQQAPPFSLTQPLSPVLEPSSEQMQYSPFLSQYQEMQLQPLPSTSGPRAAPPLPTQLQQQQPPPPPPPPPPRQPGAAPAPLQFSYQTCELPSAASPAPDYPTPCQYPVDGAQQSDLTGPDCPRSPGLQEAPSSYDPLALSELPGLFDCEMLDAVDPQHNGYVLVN

The compound `COc1ccc(N2C(=O)N(c3c(C)cccc3Cl)Cc3cnc(Nc4ccc(C5CCN(C)CC5)cc4OC)nc32)nc1` [YKL-05-099] displayed an Ob.S/BS in data set [1] (p<0.01 vs vehicle) of 16.8±1.3. This compound also gave a trabecular bone volume in data set [1] (p<0.01 vs vehicle, in % (unit assumed)) of 16.3±2.0. The same compound showed an Oc.S/BS in data set [1] (p<0.05 vs vehicle) of 1.59±0.4.
As a reminder, the Kd is the free concentration of one partner at which half of the binding sites on the other are occupied at equilibrium, for simple one-to-one binding. `COc1ccc(N2C(=O)N(c3c(C)cccc3C)Cc3cnc(Nc4ccc(C5CCN(C)CC5)c(OC)c4)nc32)c(OC)c1` [YKL-05-093] yielded a Kd in data set [2] of 7.1 nM. In addition, the cAMP levels entry in data set [3] is given as “does not induce cAMP generation; also recorded: without increasing cAMP levels”. Besides, the “half-life / stability in murine hepatic microsomes” value in data set [4] is given as “improved half-life; also recorded: somewhat improved stability”.
